# The supplement of paper PMC10307832
# What was measured:
# Assay in all cases: relative viability (nuclei count vs DMSO), 5 days (fraction); higher = more cells survive
# Ibrutinib + Pemetrexed = compound: C=CC(=O)N1CCC[C@@H](n2nc(-c3ccc(Oc4ccccc4)cc3)c3c(N)ncnc32)C1 [Ibrutinib] + Nc1nc2[nH]cc(CCc3ccc(C(=O)N[C@@H](CCC(=O)O)C(=O)O)cc3)c2c(=O)[nH]1 [Pemetrexed] (partner 0.2 µM)
# Method in brief: (§1)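 Lung cancer cell lines in 1536-well plates got either a single drug or a fixed anchor-drug dose together with five library-drug doses (not always all listed) in √10 steps, by pin tool, on the day after seeding. Nuclei were counted after 5 days, and relative viability is the treated-to-vehicle ratio of nuclei counts. Values are medians of duplicate plates.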
# BMX-IN-1 + Linsitinib = compound: C=CC(=O)Nc1cc(-n2c(=O)ccc3cnc4ccc(-c5ccc(NS(C)(=O)=O)cc5)cc4c32)ccc1C [BMX-IN-1] + C[C@]1(O)C[C@@H](c2nc(-c3ccc4ccc(-c5ccccc5)nc4c3)c3c(N)nccn32)C1 [Linsitinib] (partner 1 µM)
# Method in brief: as §1
# BMX-IN-1 + Phenformin = compound: C=CC(=O)Nc1cc(-n2c(=O)ccc3cnc4ccc(-c5ccc(NS(C)(=O)=O)cc5)cc4c32)ccc1C [BMX-IN-1] + N=C(N)NC(=N)NCCc1ccccc1 [Phenformin] (partner 250 µM)
# Method in brief: as §1
# PAC-1 + Tozasertib = compound: C=CCc1cccc(/C=N/NC(=O)CN2CCN(Cc3ccccc3)CC2)c1O [PAC-1] + Cc1cc(Nc2cc(N3CCN(C)CC3)nc(Sc3ccc(NC(=O)C4CC4)cc3)n2)n[nH]1 [Tozasertib] (partner 0.1 µM)
# Method in brief: as §1
Cell Line,relative viability (Ibrutinib + Pemetrexed; first compound 0.005 µM),relative viability (Ibrutinib + Pemetrexed; first compound 0.01581 µM),relative viability (Ibrutinib + Pemetrexed; first compound 0.05 µM),relative viability (Ibrutinib + Pemetrexed; first compound 0.1581 µM),relative viability (Ibrutinib + Pemetrexed; first compound 0.5 µM),relative viability (BMX-IN-1 + Linsitinib; first compound 0.02 µM),relative viability (BMX-IN-1 + Linsitinib; first compound 0.2 µM),relative viability (BMX-IN-1 + Linsitinib; first compound 0.6325 µM),relative viability (BMX-IN-1 + Linsitinib; first compound 2 µM),relative viability (BMX-IN-1 + Phenformin; first compound 0.02 µM),relative viability (BMX-IN-1 + Phenformin; first compound 0.2 µM),relative viability (BMX-IN-1 + Phenformin; first compound 0.6325 µM),relative viability (BMX-IN-1 + Phenformin; first compound 2 µM),relative viability (PAC-1 + Tozasertib; first compound 0.02 µM),relative viability (PAC-1 + Tozasertib; first compound 0.06325 µM),relative viability (PAC-1 + Tozasertib; first compound 0.2 µM),relative viability (PAC-1 + Tozasertib; first compound 2 µM)
RERF-LC-KJ,0.462,0.455,0.512,0.433,0.569,0.911,0.974,0.951,0.935,0.439,0.408,0.42,0.416,0.467,0.483,0.45,0.511
SK-LU-1,,0.975,1.08,1,1.09,1.3,1.15,1.21,1.09,0.513,0.636,0.626,0.524,0.314,0.332,0.341,0.294
SW 1573,,0.917,0.968,0.88,1.25,0.709,0.864,0.825,0.771,0.383,0.446,0.342,0.351,0.172,0.184,0.255,0.148
UMC-11,0.87,0.732,0.832,0.824,0.821,1.1,1.23,1.13,0.998,0.294,0.316,0.356,0.367,0.204,0.202,0.212,0.187
